{
  "source": "BindingDB's records for doi:10.1021/jm020046y",
  "about": "(National Institute of Diabetes, 2002)",
  "key": {"[1]": {"biological_target": "P2X purinoceptor 3 (Rattus norvegicus) (UniProt P49654)", "sequence (P49654 whole entry, looked up)": "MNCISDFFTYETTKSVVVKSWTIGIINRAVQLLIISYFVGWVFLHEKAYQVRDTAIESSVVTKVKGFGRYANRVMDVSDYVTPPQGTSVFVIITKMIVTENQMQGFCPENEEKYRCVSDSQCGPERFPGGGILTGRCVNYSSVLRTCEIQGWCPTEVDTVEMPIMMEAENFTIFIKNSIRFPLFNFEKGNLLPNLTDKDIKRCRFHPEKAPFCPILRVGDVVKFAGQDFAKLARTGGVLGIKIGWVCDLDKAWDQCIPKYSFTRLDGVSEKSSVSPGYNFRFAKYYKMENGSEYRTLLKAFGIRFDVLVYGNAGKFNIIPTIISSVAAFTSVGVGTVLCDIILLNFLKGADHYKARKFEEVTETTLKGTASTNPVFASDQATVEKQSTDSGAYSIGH", "assay": "The compound was evaluated for antagonist activity against recombinant rat P2X purinoceptor 3 (P2X3) at 3 uM, expressed in Xenopus oocytes"}, "[2]": {"biological_target": "P2X purinoceptor 3 (Rattus norvegicus) (UniProt P49654)", "assay": "The compound was evaluated for antagonist activity against recombinant rat P2X purinoceptor 3 (P2X3) at 10 uM,expressed in Xenopus oocytes"}, "[3]": {"biological_target": "T1, P2X purinoceptor 7 (Rattus norvegicus, UniProt Q64663)", "T1 sequence (Q64663 whole entry)": "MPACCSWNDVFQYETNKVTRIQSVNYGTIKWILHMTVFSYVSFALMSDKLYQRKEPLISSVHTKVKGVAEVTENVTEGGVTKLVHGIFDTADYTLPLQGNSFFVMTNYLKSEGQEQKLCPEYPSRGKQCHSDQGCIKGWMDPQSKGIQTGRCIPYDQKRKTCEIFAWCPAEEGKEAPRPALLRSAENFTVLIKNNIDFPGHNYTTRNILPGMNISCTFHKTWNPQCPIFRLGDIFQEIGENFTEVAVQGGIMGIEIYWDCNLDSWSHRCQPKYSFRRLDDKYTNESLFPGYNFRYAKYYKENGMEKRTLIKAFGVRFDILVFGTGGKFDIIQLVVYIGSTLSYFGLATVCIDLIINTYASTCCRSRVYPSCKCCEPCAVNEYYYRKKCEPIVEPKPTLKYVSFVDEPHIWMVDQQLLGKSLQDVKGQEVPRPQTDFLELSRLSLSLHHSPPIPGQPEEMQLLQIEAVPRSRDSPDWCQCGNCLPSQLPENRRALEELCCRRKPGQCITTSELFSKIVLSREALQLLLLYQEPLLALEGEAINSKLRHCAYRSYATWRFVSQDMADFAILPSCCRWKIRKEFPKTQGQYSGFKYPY", "assay": "The compound was evaluated for antagonist activity against recombinant rat P2X purinoceptor 7 (P2X7)"}, "[4]": {"biological_target": "P2Y purinoceptor 1 (Meleagris gallopavo, UniProt P49652)", "sequence (P49652 whole entry)": "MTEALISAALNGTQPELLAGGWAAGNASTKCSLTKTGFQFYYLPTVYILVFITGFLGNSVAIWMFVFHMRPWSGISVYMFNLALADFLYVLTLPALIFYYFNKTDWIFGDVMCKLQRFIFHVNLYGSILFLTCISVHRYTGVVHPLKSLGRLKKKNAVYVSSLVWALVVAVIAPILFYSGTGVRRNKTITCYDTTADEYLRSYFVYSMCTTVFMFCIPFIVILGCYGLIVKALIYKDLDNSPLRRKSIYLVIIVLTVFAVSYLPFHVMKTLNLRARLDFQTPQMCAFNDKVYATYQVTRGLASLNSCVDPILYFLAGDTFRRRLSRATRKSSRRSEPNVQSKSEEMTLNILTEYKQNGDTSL", "assay": "Evaluated for agonist activity against phospholipase C coupled P2Y purinoceptor 1 (P2Y1) of turkey erythrocytes"}, "[5]": {"assay": "Dissociative constant against P2Y purinoceptor (P2Y) was reported; range 10-214"}, "[6]": {"biological_target": "P2X purinoceptor 2 (Rattus norvegicus)", "assay": "The compound was evaluated for antagonist activity against recombinant rat P2X purinoceptor 2 (P2X2) at 30 uM"}, "[7]": {"assay": "The compound was evaluated for antagonist activity against recombinant rat P2X […] receptor 10 uM"}, "[8]": {"assay": "Dissociation constant at P2X purinoceptor 1 from guinea pig taenia coli"}},
  "data": [
    {"smiles": "Nc1ncnc2c1ncn2[C@@H]1O[C@H](CO[P@@](=O)(O)O[P@@](=O)(O)CP(=O)(O)O)[C@@H](O)[C@H]1O", "values": [
      {"measurement": "EC50", "setting": "[1]", "value": 9.2, "unit": "µM"}
    ]},
    {"smiles": "CCCCCCSc1nc(N)c2ncn([C@@H]3O[C@H](COP(=O)(O)O)[C@@H](O)[C@H]3O)c2n1", "note": "[((2R,3S,4R,5R)-5-(6-amino-2-(hexylthio)-9H-purin-9-yl)-3,4-dihydroxytetrahydrofuran-2-yl)methyl dihydrogen phosphate]", "values": [
      {"measurement": "EC50", "setting": "[2]", "value": 350, "unit": "nM"}
    ]},
    {"smiles": "CCOc1ccc(Nc2ccc([C+](c3ccc(N(CC)Cc4cccc(S(=O)(=O)[O-])c4)cc3C)c3ccc(N(CC)Cc4cccc(S(=O)(=O)O)c4)cc3C)cc2)cc1", "note": "[Brilliant Blue]", "values": [
      {"measurement": "EC50", "setting": "[3]", "value": 400, "unit": "nM"},
      {"measurement": "EC50", "setting": "[4]", "value": 0.1, "unit": "nM"}
    ]},
    {"smiles": "O=S(=O)(O)c1cc(N=C=S)ccc1/C=C/c1ccc(N=C=S)cc1S(=O)(=O)O", "note": "[DIDS]", "values": [
      {"measurement": "Kd", "setting": "[5]", "value": 10, "unit": "µM"}
    ]},
    {"smiles": "O=c1[nH]cnc2c1ncn2[C@@H]1O[C@H](COP(=O)(O)OP(=O)(O)OP(=O)(O)OP(=O)(O)OP(=O)(O)OC[C@H]2O[C@@H](n3cnc4c(=O)[nH]cnc43)[C@H](O)[C@@H]2O)[C@@H](O)[C@H]1O", "note": "[Ip5I]", "values": [
      {"measurement": "IC50", "setting": "[6]", "value": "> 30", "unit": "µM"},
      {"measurement": "IC50", "setting": "[7]", "value": 2800, "unit": "nM"}
    ]},
    {"smiles": "Nc1ccc(CCSc2nc(N)c3ncn([C@@H]4O[C@H](COP(=O)(O)OP(=O)(O)OP(=O)(O)O)[C@@H](O)[C@H]4O)c3n2)cc1", "note": "[PAPET-ATP]", "values": [
      {"measurement": "EC50", "setting": "[2]", "value": 17, "unit": "nM"}
    ]},
    {"smiles": "C=CS(=O)(=O)c1cccc(Nc2cc(S(=O)(=O)O)c(N)c3c2C(=O)c2ccccc2C3=O)c1", "note": "[Uniblue A]", "values": [
      {"measurement": "Kd", "setting": "[8]", "value": 800, "unit": "nM"}
    ]}
  ]
}
